{"source": "patent US20230203081A1", "about": "“LINCOSAMIDE ANTIBIOTICS AND USES THEREOF” (President and Fellows of Harvard College, priority 2020, published 2023)", "test_in_all_cases": "microbe, parasite or virus in culture", "format_in_all_cases": "cell-based", "key": {"[1]": {"system": "E. coli armA", "details": "Escherichia coli", "outline": "(§1)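 Isolates other than streptococci and anaerobes, which had their own procedures, were grown overnight at 35° C on tryptic soy agar with 5% sheep blood. Suspensions were then diluted to a final inoculum of 5×10^5 CFU/mL in broth microdilution wells.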"}, "[2]": {"system": "E. coli ΔTolC", "details": "Escherichia coli", "outline": "as §1"}, "[3]": {"system": "broad panel of different clinical isolates", "outline": "as §1"}}, "data": [{"smiles": "CSC1O[C@H]([C@H](NC(=O)[C@H]2NC[C@@H]3C[C@H](CC(C)C)CCO[C@H]32)[C@H](C)Cl)C(O)[C@@H](O)[C@H]1O", "note": "(some centres unmarked) [FSA-513018b]", "values": [{"measurement": "MIC", "setting": "[1]; E. coli HAV#056, Clinical, armA", "result": 8, "unit": "µg/mL"}, {"measurement": "MIC", "setting": "[1]; E. coli armA", "result": 8, "unit": "µg/mL"}, {"measurement": "MIC", "setting": "[2]; E. coli HAV#038, ΔTolC", "result": 0.5, "unit": "µg/mL"}, {"measurement": "MIC", "setting": "[2]; E. coli ΔTolC", "result": 0.5, "unit": "µg/mL"}, {"measurement": "MIC", "setting": "[3]; Acinetobacter baumannii, A. baumannii HAV#651, Clinical", "result": 4, "unit": "µg/mL"}, {"measurement": "MIC", "setting": "[3]; Acinetobacter baumannii, A. baumannii HAV#652 Clinical", "result": 8, "unit": "µg/mL"}, {"measurement": "MIC", "setting": "[3]; Acinetobacter baumannii, A. baumannii HAV#653, Clinical", "result": 4, "unit": "µg/mL"}, {"measurement": "MIC", "setting": "[3]; Acinetobacter baumannii, A. baumannii HAV#654, Clinical", "result": 8, "unit": "µg/mL"}, {"measurement": "MIC", "setting": "[3]; Acinetobacter baumannii, A. baumannii HAV#655, Clinical", "result": 8, "unit": "µg/mL"}, {"measurement": "MIC", "setting": "[3]; Acinetobacter baumannii, A. baumannii HAV#656, Clinical", "result": 16, "unit": "µg/mL"}, {"measurement": "MIC", "setting": "[3]; Acinetobacter baumannii, A. baumannii HAV#657, Clinical", "result": 4, "unit": "µg/mL"}, {"measurement": "MIC", "setting": "[3]; Acinetobacter baumannii, A. baumannii HAV#658, Clinical", "result": 4, "unit": "µg/mL"}, {"measurement": "MIC", "setting": "[3]; Acinetobacter baumannii, A. baumannii HAV#659, Clinical", "result": 8, "unit": "µg/mL"}, {"measurement": "MIC", "setting": "[3]; Acinetobacter baumannii, A. baumannii HAV#660, Clinical", "result": 16, "unit": "µg/mL"}, {"measurement": "MIC", "setting": "[3]; Acinetobacter baumannii, A. baumannii HAV#661, Clinical", "result": 8, "unit": "µg/mL"}, {"measurement": "MIC", "setting": "[3]; Acinetobacter baumannii, A. baumannii HAV#662, Clinical", "result": 8, "unit": "µg/mL"}, {"measurement": "MIC", "setting": "[3]; Acinetobacter baumannii, A. baumannii HAV#663, Clinical", "result": 4, "unit": "µg/mL"}, {"measurement": "MIC", "setting": "[3]; Acinetobacter baumannii, A. baumannii HAV#664, Carbapenem R", "result": 16, "unit": "µg/mL"}, {"measurement": "MIC", "setting": "[3]; Enterococcus faecalis, E. faecalis HAV#602, Clincal", "result": "≤ 0.06", "unit": "µg/mL"}, {"measurement": "MIC", "setting": "[3]; Enterococcus faecalis, E. faecalis HAV#607, Clinical", "result": 2, "unit": "µg/mL"}, {"measurement": "MIC", "setting": "[3]; Enterococcus faecalis, E. faecalis HAV#609, Clinical", "result": 2, "unit": "µg/mL"}, {"measurement": "MIC", "setting": "[3]; Enterococcus faecalis, E. faecalis HAV#611, Line R & Vanco R", "result": 0.125, "unit": "µg/mL"}, {"measurement": "MIC", "setting": "[3]; Enterococcus faecalis, E. faecalis HAV#612, Line R", "result": "≤ 0.06", "unit": "µg/mL"}, {"measurement": "MIC", "setting": "[3]; Enterococcus faecalis, S. faecalis 5060, Line R & Vanco R", "result": 0.125, "unit": "µg/mL"}, {"measurement": "MIC", "setting": "[3]; Enterococcus faecalis, S. faecalis 5074, Line R", "result": "≤ 0.06", "unit": "µg/mL"}, {"measurement": "MIC", "setting": "[3]; Enterococcus faecium, E. faecium HAV#317, Clinical", "result": 0.25, "unit": "µg/mL"}, {"measurement": "MIC", "setting": "[3]; Enterococcus faecium, E. faecium HAV#324, Clinical", "result": 1, "unit": "µg/mL"}, {"measurement": "MIC", "setting": "[3]; Enterococcus faecium, E. faecium HAV#327, Clinical", "result": 0.06, "unit": "µg/mL"}, {"measurement": "MIC", "setting": "[3]; Enterococcus faecium, E. faecium HAV#328, Clinical", "result": 1, "unit": "µg/mL"}, {"measurement": "MIC", "setting": "[3]; Enterococcus faecium, E. faecium HAV#329, Clinical", "result": 1, "unit": "µg/mL"}, {"measurement": "MIC", "setting": "[3]; Enterococcus faecium, E. faecium HAV#604, Clinical", "result": 0.06, "unit": "µg/mL"}, {"measurement": "MIC", "setting": "[3]; Enterococcus faecium, VRE, E. faecium HAV#319, Line R & Vanco R", "result": "≤ 0.06", "unit": "µg/mL"}, {"measurement": "MIC", "setting": "[3]; Enterococcus faecium, VRE, E. faecium HAV#320, Clinical", "result": 0.25, "unit": "µg/mL"}, {"measurement": "MIC", "setting": "[3]; Enterococcus faecium, VRE, E. faecium HAV#326, Clinical", "result": 0.25, "unit": "µg/mL"}, {"measurement": "MIC", "setting": "[3]; Escherichia coli, E. coli HAV#501, Clinical", "result": 8, "unit": "µg/mL"}, {"measurement": "MIC", "setting": "[3]; Escherichia coli, E. coli HAV#503, Clinical", "result": 8, "unit": "µg/mL"}, {"measurement": "MIC", "setting": "[3]; Escherichia coli, E. coli HAV#511, Clinical", "result": 4, "unit": "µg/mL"}, {"measurement": "MIC", "setting": "[3]; Escherichia coli, E. coli HAV#512, Clinical", "result": 8, "unit": "µg/mL"}, {"measurement": "MIC", "setting": "[3]; Escherichia coli, E. coli HAV#513, Clinical", "result": 16, "unit": "µg/mL"}, {"measurement": "MIC", "setting": "[3]; Escherichia coli, E. coli HAV#514, Clinical", "result": 8, "unit": "µg/mL"}, {"measurement": "MIC", "setting": "[3]; Escherichia coli, E. coli HAV#516, ESBL-producing", "result": 8, "unit": "µg/mL"}, {"measurement": "MIC", "setting": "[3]; Haemophilus influenzae, ATCC9007, H. influenzae HAV#376, ATCC-9007", "result": 0.5, "unit": "µg/mL"}, {"measurement": "MIC", "setting": "[3]; K. pneumnoniae HAV#402, FQ-R", "result": 16, "unit": "µg/mL"}, {"measurement": "MIC", "setting": "[3]; Klebsiella pneumoniae, K. pneumoniae HAV#041, Clinical, KPC", "result": 32, "unit": "µg/mL"}, {"measurement": "MIC", "setting": "[3]; Klebsiella pneumoniae, K. pneumoniae HAV#402, FQ-R", "result": 16, "unit": "µg/mL"}, {"measurement": "MIC", "setting": "[3]; Klebsiella pneumoniae, K. pneumoniae HAV#404, Clinical", "result": 32, "unit": "µg/mL"}, {"measurement": "MIC", "setting": "[3]; Klebsiella pneumoniae, K. pneumoniae HAV#405, Clinical", "result": 16, "unit": "µg/mL"}, {"measurement": "MIC", "setting": "[3]; Klebsiella pneumoniae, K. pneumoniae HAV#406, Clinical", "result": 64, "unit": "µg/mL"}, {"measurement": "MIC", "setting": "[3]; Klebsiella pneumoniae, K. pneumoniae HAV#407, Clinical", "result": 128, "unit": "µg/mL"}, {"measurement": "MIC", "setting": "[3]; Klebsiella pneumoniae, K. pneumoniae HAV#408, Clinical", "result": 128, "unit": "µg/mL"}, {"measurement": "MIC", "setting": "[3]; Klebsiella pneumoniae, K. pneumoniae HAV#409, ESBL-producing", "result": 16, "unit": "µg/mL"}, {"measurement": "MIC", "setting": "[3]; Neisseria gonorrhoeae, N. gonorrhoeae HAV#701, Clinical", "result": 0.125, "unit": "µg/mL"}, {"measurement": "MIC", "setting": "[3]; Neisseria gonorrhoeae, N. gonorrhoeae HAV#702, Clinical", "result": 0.125, "unit": "µg/mL"}, {"measurement": "MIC", "setting": "[3]; Staphylococcus aureus, MRSA, S. aureus HAV#218, Line R", "result": 0.125, "unit": "µg/mL"}, {"measurement": "MIC", "setting": "[3]; Staphylococcus aureus, MRSA, S. aureus HAV#220, Line R", "result": "> 128", "unit": "µg/mL"}, {"measurement": "MIC", "setting": "[3]; Staphylococcus aureus, MSSA, S. aureus HAV#219, Line R", "result": "> 128", "unit": "µg/mL"}]}]}
